According to US9969742B2, “Imidazotriazinone compounds” (Ironwood Pharmaceuticals, Inc., priority 2012, dated 2018):
pIC50: −log10 of the molar value. Like-named read-outs stand apart in the source and are kept apart here.

How the values were obtained:
Type in all cases: biochemical
PDE1A = biological target: T1, PDE1A (Homo sapiens, UniProt P54750); assay: Phosphodiesterase enzyme screening assay, PDE1A; settings: ratio of IC50 values
T1 construct: purchased Reaction Biology Corporation, Malvern, Pa
Method in brief: (§1)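 Human PDE isoforms were incubated 1 h at room temperature with 4.0 μM fluorescent cGMP substrate in 100 mM HEPES pH 7.5, 5 mM MgCl2, 1 mM DTT, 0.003% Brij. EDTA stop buffer ended reactions, and substrate and 5′-GMP product were separated by microfluidic electrophoretic mobility shift with laser-induced fluorescence. Inhibition was calculated against control wells.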

PDE1B = biological target: T2, PDE1B (Homo sapiens, UniProt Q01064); assay: Phosphodiesterase enzyme screening assay, PDE1B; settings: ratio of IC50 values
T2 construct: purchased Reaction Biology Corporation, Malvern, Pa
Method in brief: as §1

PDE9A2 = biological target: T3, PDE9A2 (Homo sapiens, UniProt O76083); assay: Phosphodiesterase enzyme screening assay, PDE9A2; settings: read-out: Band (PDE9A2 IC50)
T3 construct: purchased Reaction Biology Corporation, Malvern, Pa
Method in brief: as §1

[1] = Table 1, value greater than 1 indicates greater selectivity for PDE9A2
[2] = Table 1, 10 concentrations, 4.0 μM cGMP substrate, 1 hour at R.T.
[3] = value greater than 1 indicates greater selectivity for PDE9A2

T3 sequence (O76083 1-533 isoform O76083-2): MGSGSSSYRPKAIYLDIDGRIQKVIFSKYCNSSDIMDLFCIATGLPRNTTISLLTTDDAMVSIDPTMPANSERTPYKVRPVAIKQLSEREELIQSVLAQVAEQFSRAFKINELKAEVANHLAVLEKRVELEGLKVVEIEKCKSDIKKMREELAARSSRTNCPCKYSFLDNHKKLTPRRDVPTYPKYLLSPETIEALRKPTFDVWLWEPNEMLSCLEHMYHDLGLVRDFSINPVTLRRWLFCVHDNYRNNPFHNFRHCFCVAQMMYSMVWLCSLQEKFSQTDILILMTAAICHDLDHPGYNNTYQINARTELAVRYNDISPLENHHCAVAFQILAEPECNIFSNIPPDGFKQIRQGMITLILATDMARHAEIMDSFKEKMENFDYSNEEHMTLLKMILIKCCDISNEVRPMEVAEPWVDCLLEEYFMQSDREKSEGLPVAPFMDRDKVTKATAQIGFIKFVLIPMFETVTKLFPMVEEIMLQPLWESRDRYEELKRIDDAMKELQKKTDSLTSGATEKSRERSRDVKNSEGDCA
T2 sequence (Q01064 whole entry): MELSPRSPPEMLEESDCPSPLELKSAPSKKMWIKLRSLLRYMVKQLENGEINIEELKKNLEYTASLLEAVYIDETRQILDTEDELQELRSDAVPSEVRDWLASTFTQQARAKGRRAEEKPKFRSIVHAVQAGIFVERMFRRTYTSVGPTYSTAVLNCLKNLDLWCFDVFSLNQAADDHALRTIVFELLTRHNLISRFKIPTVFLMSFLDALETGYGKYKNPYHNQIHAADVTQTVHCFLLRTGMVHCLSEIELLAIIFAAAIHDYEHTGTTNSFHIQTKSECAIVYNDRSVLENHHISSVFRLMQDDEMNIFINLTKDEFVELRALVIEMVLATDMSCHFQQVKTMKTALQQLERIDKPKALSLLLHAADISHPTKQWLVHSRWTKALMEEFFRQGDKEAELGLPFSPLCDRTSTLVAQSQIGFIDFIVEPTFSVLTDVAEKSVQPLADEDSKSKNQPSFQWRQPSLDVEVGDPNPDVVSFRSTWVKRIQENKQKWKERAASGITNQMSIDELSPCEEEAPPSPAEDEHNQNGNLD
T1 sequence (P54750 whole entry): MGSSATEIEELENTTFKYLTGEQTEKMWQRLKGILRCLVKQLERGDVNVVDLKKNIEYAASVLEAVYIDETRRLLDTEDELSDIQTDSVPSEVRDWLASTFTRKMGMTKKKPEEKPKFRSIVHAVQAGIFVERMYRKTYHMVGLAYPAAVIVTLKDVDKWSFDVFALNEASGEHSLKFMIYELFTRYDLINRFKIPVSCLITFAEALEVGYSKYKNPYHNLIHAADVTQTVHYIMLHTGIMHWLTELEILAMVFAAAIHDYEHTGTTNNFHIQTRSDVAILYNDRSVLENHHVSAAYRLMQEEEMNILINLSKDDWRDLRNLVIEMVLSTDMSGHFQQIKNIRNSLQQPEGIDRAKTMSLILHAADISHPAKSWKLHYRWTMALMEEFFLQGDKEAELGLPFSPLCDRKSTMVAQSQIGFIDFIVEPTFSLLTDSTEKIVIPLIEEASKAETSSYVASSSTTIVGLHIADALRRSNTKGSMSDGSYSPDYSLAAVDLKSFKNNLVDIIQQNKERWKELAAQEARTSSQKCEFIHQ

SMILES	PDE1A selectivity (versus PDE9A2) (PDE1A; [1])	PDE1B selectivity (versus PDE9A2) (PDE1B; [1])	pIC50 (PDE9A2; [2])	further results
CC1CN(Cc2cn3cccnc3n2)CC1c1nn2c(C3CCOCC3)ncc2c(=O)[nH]1 (single isomer, unassigned; (-)) [(−)-2-((3,4-trans)-1-(imidazo[1,2-a]pyrimidin-2-ylmethyl)-4-methylpyrrolidin-3-yl)-7-(tetrahydro-2H-pyran-4-yl)imidazo[5,1-f][1,2,4]triazin-4(3H)-one]	188	591	> 6.00	
CC1CN(Cc2cn3ncccc3n2)CC1c1nn2c(C3CCOCC3)ncc2c(=O)[nH]1 (single isomer, unassigned; (-)) [(−)-2-((3,4-trans)-1-(imidazo[1,2-b]pyridazin-2-ylmethyl)-4-methylpyrrolidin-3-yl)-7-(tetrahydro-2H-pyran-4-yl)imidazo[5,1-f][1,2,4]triazin-4(3H)-one]	8	12	> 6.00	
CC1CN(Cc2ccccc2)CC1c1nn2c(C3CCOCC3)ncc2c(=O)[nH]1 (single isomer, unassigned; (-)) [(−)-2-((3,4-trans)-1-benzyl-4-methylpyrrolidin-3-yl)-7-(tetr] [(−)-2-((3,4-trans)-1-benzyl-4-methylpyrrolidin-3-yl)-7-(tetrahydro-2H-pyran-4-yl)imidazo[1,5-f][1,2,4]triazin-4(3H)-one]	465	550	> 6.00	
CC1CN(Cc2ccc(-c3ccncc3)cc2)CC1c1nn2c(C3CCOCC3)ncc2c(=O)[nH]1 (single isomer, unassigned; (-)) [(−)-2-((3,4-trans)-4-methyl-1-(4-(pyridin-4-yl)benzyl)pyrrolidin-3-yl)-7-(tetrahydro-2H-pyran-4-yl)imidazo[5,1-f][1,2,4]triazin-4(3H)-one]				PDE1A selectivity (versus PDE9A2) (PDE1A; PDE1A versus PDE9A2, value greater than 1 = greater selectivity for PDE9A2): 679; PDE1B selectivity (versus PDE9A2) (PDE1B; PDE1B versus PDE9A2, value greater than 1 = greater selectivity for PDE9A2): 1560; pIC50 (PDE9A2; Table 3, 4.0 μM cGMP substrate, 1 hour at R.T.): > 6.00
CC1CN(Cc2ncc3ccccc3n2)CC1c1nn2c(C3CCOCC3)ncc2c(=O)[nH]1 (single isomer, unassigned; (-)) [(−)-2-((3,4-trans)-4-methyl-1-(quinazolin-2-ylmethyl)pyrroli] [(−)-2-((3,4-trans)-4-methyl-1-(quinazolin-2-ylmethyl)pyrrolidin-3-yl)-7-(tetrahydro-2H-pyran-4-yl)imidazo[5,1-f][1,2,4]triazin-4(3H)-one]	1213	2000	> 6.00	
CC1CN(C(=O)c2ncc3ccccc3n2)CC1c1nn2c(C3CCOCC3)ncc2c(=O)[nH]1 (single isomer, unassigned; (-)) [(−)-2-((3,4-trans)-4-methyl-1-(quinazoline-2-carbonyl)pyrrolidin-3-yl)-7-(tetrahydro-2H-pyran-4-yl)imidazo[5,1-f][1,2,4]triazin-4(3H)-one]	32	50	> 6.00	
CC1CN(Cc2ccc3ccccc3n2)CC1c1nn2c(C3CCOCC3)ncc2c(=O)[nH]1 (single isomer, unassigned; (-)) [(−)-2-((3,4-trans)-4-methyl-1-(quinolin-2-ylmethyl)pyrrolidi] [(−)-2-((3,4-trans)-4-methyl-1-(quinolin-2-ylmethyl)pyrrolidin-3-yl)-7-(tetrahydro-2H-pyran-4-yl)imidazo[5,1-f][1,2,4]triazin-4(3H)-one]	56	48	> 6.00	
CC1CN(Cc2ccc3cccnc3c2)CC1c1nn2c(C3CCOCC3)ncc2c(=O)[nH]1 (single isomer, unassigned; (-)) [(−)-2-((3,4-trans)-4-methyl-1-(quinolin-7-ylmethyl)pyrrolidin-3-yl)-7-(tetrahydro-2H-pyran-4-yl)imidazo[5,1-f][1,2,4]triazin-4(3H)-one]	334	2610	> 6.00	
CC1CN(C(=O)c2ccc3ccccc3n2)CC1c1nn2c(C3CCOCC3)ncc2c(=O)[nH]1 (single isomer, unassigned; (-)) [(−)-2-((3,4-trans)-4-methyl-1-(quinoline-2-carbonyl)pyrrolidin-3-yl)-7-(tetrahydro-2H-pyran-4-yl)imidazo[5,1-f][1,2,4]triazin-4(3H)-one]	25	59	> 6.00	
CC1CN(C(=O)c2cccnc2)CC1c1nn2c(C3CCOCC3)ncc2c(=O)[nH]1 (single isomer, unassigned; (-)) [(−)-2-((3,4-trans)-4-methyl-1-nicotinoylpyrrolidin-3-yl)-7-(tetrahydro-2H-pyran-4-yl)imidazo[5,1-f][1,2,4]triazin-4(3H)-one]	36	50	> 6.00	
CC1CN(C(=O)c2ccc(C#N)cc2)CC1c1nn2c(C3CCOCC3)ncc2c(=O)[nH]1 (single isomer, unassigned; (-)) [(−)-4-((3,4-trans)-3-methyl-4-(4-oxo-7-(tetrahydro-2H-pyran-4-yl)-3,4-dihydroimidazo[5,1-f][1,2,4]triazin-2-yl)pyrrolidine-1-carbonyl)benzonitrile]	14	21	> 6.00	
CC1CN(Cc2ccc(C#N)cc2)CC1c1nn2c(C3CCOCC3)ncc2c(=O)[nH]1 (single isomer, unassigned; (-)) [(−)-4-(((3,4-trans)-3-methyl-4-(4-oxo-7-(tetrahydro-2H-pyran-4-yl)-3,4-dihydroimidazo[5,1-f][1,2,4]triazin-2-yl)pyrrolidin-1-yl)methyl)benzonitrile]	640	1445	> 6.00	
CC1CN(CC2CCN(C(=O)OC(C)(C)C)CC2)CC1c1nn2c(C3CCOCC3)ncc2c(=O)[nH]1 (single isomer, unassigned; (-)) [(−)-tert-butyl (−)-4-(((3,4-trans)-3-methyl-4-(4-oxo-7-(tetrahydro-2H-pyran-4-yl)-3,4-dihydroimidazo[5,1-f][1,2,4]triazin-2-yl)pyrrolidin-1-yl)methyl)piperidine-1-carboxylate]				PDE1A selectivity (versus PDE9A2) (PDE1A; [3]): 129; PDE1B selectivity (versus PDE9A2) (PDE1B; [3]): 262; pIC50 (PDE9A2): > 6.00
